What was measured:
[1] = test system: luxCDABE gene fusions; assay: retest of nalidixic acid upregulated fusions in liquid medium; assay type: cell-based, E. coli; details: of 7 conc tested
Protocol: Several concentrations of nalidixic acid were used because the differences in responses between liquid and solid growth were not known. Light production of 100 μl duplicate cultures at 37° C. was quantitated using a 96 well plate luminometer (Luminoskan Ascent, Labsystems). […] It should be noted that the liquid medium tests were not corrected for growth inhibition by nalidixic acid.

[2] = test system: Luxarray 0.5 luxCDABE reporter clones; assay: Luxarray 0.5 solid phase perturbation with nalidixic acid; assay type: cell-based, E. coli; details: for bioluminescence response: solid phase, 1 or 5 μg/ml, 2 hrs
Protocol: A solid phase assay system consisting of reporter clones growing in the presence or absence of a perturbation, biological, environmental or chemical was developed. This was accomplished by growing the reporters on a porous membrane (Biodyne B, Nunc) seated on top of solid growth media in a culture dish (OmniTray, Nunc). Luminescence was measured either by a luminometer or by creating an image of the entire culture and quantitating the pixel density. Effects of perturbants can be determined by comparison of luminescence generated by treated and control cultures. Growth on the surface of the membrane allows the reporter assay to be moved between conditions as required. Experimental protocols often involve perturbations that prohibit long term exposure due to cell death or other irreversible effects. The ability to move the entire array to new growth conditions allows one a great variety of experimental schemes such as pulsed or pulse/chase exposures, reversibility, and short term kinetic studies.
Membranes were sterilized with UV illumination for 10 min then placed in contact with prewarmed media in a culture dish. The clones and controls were printed onto an approximately 8×12 cm membrane mimicking the pattern of a 96-well plate (FIG. 3A). Strains were printed to generate 8 repeating sections of the 10 strains and two controls and placed in a Dynex ML3000 luminometer prewarmed to 37° C. Luminescence data was collected for each spot for 40 cycles of 20 min duration (overnight). […] Without exception, the signal strength measured corroborated the data obtained in liquid culture. Additionally, replicates varied minimally, again similar to liquid culture measurements.
Next the system was evaluated for its ability to determine responses to perturbation, in this case, DNA damage caused by nalidixic acid. Parental clone and two nonresponding reporters, osmY, and lacZYA, and three DNA damage responsive reporters, uvrA, recA, dinG, were chosen. […] The membranes were moved to new, pre-warmed plates containing varying amounts of nalidixic acid and light readings collected with an ML3000 luminometer. […] Luminescence was measured with a Dynex ML3000 luminometer every 30 min for 2 hrs. […] The strain containing the parental plasmid, pDEW201, without a promoter driving luxCDABE expression produces very low levels of bioluminescence that are very close to the background measured on a ML3000 luminometer for strains grown in 96-well microplates. […]
The clones of Luxarray 0.5 were used to print arrays as described above at a 4×4 density. […] Spot intensity was determined using ArrayVision™ (Imaging Research, Toronto, Canada).

**Q.** What does the source list for `CCn1cc(C(=O)O)c(=O)c2ccc(C)nc21` [Nalidixic acid, nalidixic acid]?
**A.** # of conc with > 1.5 fold up ([1]; dinG ybiB lux-a.pk0024.f5): 6; # of conc with > 1.5 fold up ([1]; dinP lux-a.pk055.a3): 7; # of conc with > 1.5 fold up ([1]; frvR frvX frvB frvA lux-a.pk046.e6): 0; # of conc with > 1.5 fold up ([1]; lpxA lpxB rnhB dnaE lux-a.pk061.c3): 3; # of conc with > 1.5 fold up ([1]; lux-a.pk0015.d6): 6; # of conc with > 1.5 fold up ([1]; lux-a.pk0019.g1): 6; # of conc with > 1.5 fold up ([1]; lux-a.pk033.c5): 7; # of conc with > 1.5 fold up ([1]; oraA lux-a.pk058.f5): 7; # of conc with > 1.5 fold up ([1]; yaaF lux-a.pk031.e7): 3; # of conc with > 1.5 fold up ([1]; yfhJ fdx hscA yfhE lux-a.pk0019.g2): 0; # of conc with > 1.5 fold up ([1]; yigN lux-a.pk046.f11): 5; bioluminescence response ([2]; SOS regulon reporters uvrA, recA, dinG): increased bioluminescence; reporter expression ([2]; five DNA damage-responsive reporters, high density array, 5 μg/ml, 0-8 hr): upregulation of expression; light production ([2]; lac promoter fusion and several other promoter fusions, high density array, 5 μg/ml): decreased; bioluminescence response ([2]; osmY and lacZYA fusions): unaffected

Reference: US6716582B2 (priority 2000, dated 2004)
